Calls of active or inactive are those of the source. No cut-off for these calls is given here.
Assays:
[1] = test system: SU-DHL-1; experiment: Induction of apoptosis in human SU-DHL-1 cells assessed as caspase activation in presence of AZD5991 incubated for 6 hrs by caspaseGlo 3/7 reagent based assay; assay type: functional, cell-based; settings: SU-DHL-1, 6 h
[2] = test system: SU-DHL-1; experiment: Antiproliferative activity against human SU-DHL-1 cells assessed as cell viability incubated for 24 hrs by celltiter-glo assay; assay type: functional, cell-based; settings: SU-DHL-1, 24 h
[3] = test system: KARPAS-422; experiment: Antiproliferative activity against BFL1 null human KARPAS-422 cells assessed as cell viability incubated for 24 hrs by celltiter-glo assay; assay type: functional, cell-based
[4] = biological target: Induced myeloid leukemia cell differentiation protein Mcl-1 (Homo sapiens, UniProt Q07820); experiment: Inhibition of MCL1 (unknown origin) by FRET assay
Induced myeloid leukemia cell differentiation protein Mcl-1, sequence (Q07820 whole entry): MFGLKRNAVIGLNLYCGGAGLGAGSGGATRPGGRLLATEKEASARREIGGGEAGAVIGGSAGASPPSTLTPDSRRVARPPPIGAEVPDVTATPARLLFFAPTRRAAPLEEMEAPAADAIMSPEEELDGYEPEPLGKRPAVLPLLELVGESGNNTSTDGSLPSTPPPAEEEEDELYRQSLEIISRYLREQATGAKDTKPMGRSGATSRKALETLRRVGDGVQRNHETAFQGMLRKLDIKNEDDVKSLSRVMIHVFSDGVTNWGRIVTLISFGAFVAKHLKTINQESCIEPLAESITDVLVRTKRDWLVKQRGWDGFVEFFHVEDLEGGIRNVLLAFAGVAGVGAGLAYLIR

[5] = biological target: Cannabinoid receptor 1 (Homo sapiens, UniProt P21554); experiment: Inhibition of human CB1 receptor
Cannabinoid receptor 1, sequence (P21554 whole entry): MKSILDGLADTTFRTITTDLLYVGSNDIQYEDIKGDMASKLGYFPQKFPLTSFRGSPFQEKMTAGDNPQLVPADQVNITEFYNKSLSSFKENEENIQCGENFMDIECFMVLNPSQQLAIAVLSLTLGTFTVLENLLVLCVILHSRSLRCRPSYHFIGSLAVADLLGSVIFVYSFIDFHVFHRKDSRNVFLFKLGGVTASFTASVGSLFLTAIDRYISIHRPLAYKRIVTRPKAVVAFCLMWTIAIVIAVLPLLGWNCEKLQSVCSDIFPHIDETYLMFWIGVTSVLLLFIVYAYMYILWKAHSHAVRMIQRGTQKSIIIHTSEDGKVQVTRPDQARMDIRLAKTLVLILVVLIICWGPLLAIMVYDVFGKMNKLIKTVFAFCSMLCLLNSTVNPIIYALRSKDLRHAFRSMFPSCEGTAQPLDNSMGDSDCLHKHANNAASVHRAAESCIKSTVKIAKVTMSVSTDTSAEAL

[6] = test system: SU-DHL-1; experiment: Antiproliferative activity against human SU-DHL-1 cells assessed as cell survival upto 100 uM incubated for 24 hrs by celltiter-glo assay; assay type: functional, cell-based
[7] = test system: KARPAS-422; experiment: Antiproliferative activity against human KARPAS-422 cells assessed as cell survival at 10 uM incubated for 24 hrs by celltiter-glo assay; assay type: functional, cell-based
[8] = test system: OCI-Ly10; experiment: Induction of apoptosis in human OCI-Ly10 cells assessed as caspase activation incubated for 6 hrs by caspaseGlo 3/7 reagent based assay; assay type: functional, cell-based
[9] = test system: Mus musculus; experiment: Effect on BFL1 level in po dosed SCID mouse measured for 6 hrs by MSD assay; assay type: functional, organism-based; settings: dose 100-300 mg/kg
[10] = test system: Mus musculus; experiment: Effect on cleaved caspase 3 level in po dosed SCID mouse measured for 6 hrs by MSD assay; assay type: functional, organism-based; settings: dose 100-300 mg/kg

EC50 [1]: 350 nM | EC50 [2]: 250 nM | IC50 [4]: > 100000 nM | IC50 [5]: > 100000 nM | Activity [10]: Dose-dependent-effect
SMILES: C=CC(=O)N(c1ccc(O[C@@H]2CC[C@@H](N)C2)c(F)c1)[C@@H](C)c1ccc(Cl)cc1
Activity [3]: Active | Activity [6]: Active | Activity [7]: inactive | Activity [8]: Active | Activity [9]: Dose-dependent-effect

Reference: ChEMBL document CHEMBL6074680, “Structure-Based Discovery of a Series of Covalent, Orally Bioavailable, and Selective BFL1 Inhibitors” (J Med Chem, 2024)
